This is an account of results in patent US9975852B2, “Quinoline sulfonyl derivatives and uses thereof” (Health Sciences North Research Institute, priority 2013, dated 2018).

One series relates to 184B5. As to the kind of experiment: SRB antiproliferative assay, 184B5 non-cancer breast cells. The format is cell-based, human. The conditions noted are these: Homo sapiens, 184B5, SRB. Summed up: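 Cells (5,000-10,000 per well) exposed to seven drug concentrations for 48 h, then TCA-fixed and stained with 0.4% SRB. Growth computed as (Ti−Tz)/(C−Tz)×100 against time-zero and untreated controls. GI50 taken from variable-slope sigmoidal fit.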

For the next series, the system named is HeLa. Briefly: SRB antiproliferative assay, HeLa. The conditions noted are these: Homo sapiens. In kind it is cell-based. The protocol:
(§1) Antiproliferative effects were determined by a sulforhodamine B (SRB) based protocol. For a typical screening experiment, 5,000-10,000 cells were inoculated into 100 μl medium per well of a 96-well microtiter plate as described previously. Briefly, after the inoculation, the microtiter plate was incubated at 37° C., 5% CO2, 95% air and 100% relative humidity for 24 h, prior to addition of experimental drugs. Some of the sample wells were fixed with 25 μl of 50% trichloroacetic acid (TCA) as a control of the cell population for each cell line at the time of drug addition (Tz). An aliquot of the frozen stock was thawed and diluted to the desired final maximum test-concentration with complete medium. […] The cells “stained” with SRB were solubilized with 10 mM trizma base, and the absorbance was read on an automated plate reader at a wavelength of 515-564 nm. The relative growth rate (%) was calculated for each of the compound concentrations according to the following formula: (Ti−Tz)/(C−Tz)×100 In the formula, time zero (Tz), control growth (C), and OD for different concentration of tested compounds (Ti). […] Values were calculated for each of these parameters if the level of activity was reached. However, if the effect was not reached or was exceeded, the value for that parameter was expressed as greater or less than the maximum or minimum concentration tested. […]
In general terms: The SRB assay estimates cell density from bound dye.

For the next series, the system named is U87MG. Briefly: SRB antiproliferative assay, U87MG. In kind it is cell-based. The conditions noted are these: Homo sapiens, U-87 MG. The procedure: as §1
The test system of the next series is MCF7 cells. Briefly: Flow cytometry, apoptosis of MCF7 cells. In kind it is cell-based, human. Particulars: VR-23 2.7 or 8.0 μM, 48 hours. The procedure:
Asynchronous MCF7 cells were incubated for 48 hours in the absence (Sham treated control) or presence of VR-23 at 2.7 or 8.0 μM. […] (Note the sub-G1 DNA profile that is typical for apoptotic cell death.) The profiles of flow cytometry are consistent with the cell images in the corresponding upper panels (FIG. 3).
Background: A flow cytometer gives signals particle by particle.

Series [1] in a line: Body weight of ATH490 mice. The format is in vivo. Particulars: VR-23 30 mg/kg. The text has this:
D0-D25/D29 denotes day 0 to days 25/29 post-drug treatment. […] The body weights of ATH490 mice are normalized on the basis that those of day 0 are 100%.

Take `O=[N+]([O-])c1ccc(S(=O)(=O)N2CCN(c3ccnc4cc(Cl)ccc34)CC2)c([N+](=O)[O-])c1` [Compound 1, 7-Chloro-4-(4-(2,4-dinitrophenylsulfonyl)piperazin-1-yl)quinoline]: the IC50 in the series on 184B5 is 9 ± 0.1 µM; in the series with HeLa it was 4.4 ± 3 µM; in the series with U87MG, 800 ± 100 nM. Besides, in the series with 184B5 (48 h, read-out: GI50 184B5), the GI50 was 8.99 ± 0.12 µM. Besides, in the series on MCF7 cells, the “Apoptosis (sub-G1 DNA profile)” value is “caused apoptosis”. For the same compound, the “Toxic effect by body weight” value in series [1] is “did not show any notable toxic effect”.

In general, IC50 refers to the concentration needed to halve the response being measured. The GI50 is the concentration that inhibits growth by half.
